Source: patent EP2033635B1, “Use of phenylbutyric acid or salts thereof for treating pruritus” (Asan Laboratories Company (Cayman) Limited, priority 2007, dated 2009)

Assays:
Assay type in all cases: cell-based
Jurkat T cells [1] = assay: Real-time PCR gene expression profiling (RT2 Profiler PCR Array Human Th1-Th2-Th3) in Jurkat T cells stimulated with PMA/ionomycin
Description: FIGs. […] Jurkat T cells were pre-incubated with phenylbutyrate (1 mM) for 24 hrs, and then stimulated with ionomycin (1 µM) and PMA (10 ng/ml) for 6 hrs. Using real-time PCR, the expression of a panel of genes related to helper T cells with or without T-cell stimulation and phenylbutyrate treatment was analyzed. The array includes cytokine genes representative of Th1, Th2 and Th3 cells, gene encoding transcriptional factors regulating the expression of cytokines as well as other markers of CD4+ T lymphocytes, genes involved in immune cell activation in the Th1 and Th2 type immune responses, and genes involved in the antimicrobial humoral response. Results are the mean ± SE of three determinations, expressed as the fold induction (observed experimental relative unit/basal control relative unit in the absence of any stimuli or treatment);
Jurkat T-cells were nonstimulated or stimulated with ionomycin (1 µM) and PMA (10 ng/ml) for 6 hrs in the absence or presence of pre-incubation of 4-phenylbutyrate sodium (1 mM) for 24 hrs, RNA was extracted and then RT-PCR was performed for profiling the expression of 84 genes related to Th1-Th2-Th3 responses shown in the gene table (FIG. 2).

Jurkat T cells [2] = assay: Flow cytometry of cell proliferation, cytotoxicity, apoptosis and cell cycle in Jurkat T cells
Description: Jurkat T cells were treated in the presence of increasing concentrations of 4-phenylbutyrate, ionomycin, and/or phorbol 12-myristate 13-acetate (PMA) for 24-72 hr at 37°C.

human IL-2 promoter = assay: Chromatin immunoprecipitation (ChIP) assay of transcription-factor binding and acetyl H3 at the IL-2 promoter in Jurkat T cells; conditions: 4-phenylbutyrate sodium 1 mM 24 hrs, then ionomycin 1 µM and PMA 10 ng/ml 6 hrs
Description: The induction of multiple cytokine expression depends on the coordinated activation of transcription factors, mostly including NFκB, NF-AT, and AP-1 (Sancho R, et al. J Immunol 172:2341-51, 2004; Li-Weber M, et al. Eur J Immunol 34 :1111-18, 2004). Because induction of cytokines is regulated mainly at the transcriptional level, chromatin immunoprecipitation (ChIP) analysis in Jurkat T cells was performed to determine the binding of NFκB, NF-AT, and AP-1 to IL-2 promoter. Jurkat T cells were nonstimulated or stimulated with ionomycin (1 µM) and PMA (10 ng/ml) for 6 hrs in the absence or presence of pre-incubation of 4-phenylbutyrate sodium (1 mM) for 24 hrs, then formaldehyde crosslinking between protein and DNA and ChIP using anti- NFκB, NF-AT, AP-1, Sp1 or acetyl H3 antibodies (Santa Cruz) were performed. PCR primers were designed to amplify the human IL-2 promoter: F 5'-[…] (-317 to -292 in the IL-2 promoter), R 5'-[…] (+33 to 58). PCR amplifications used a three-step protocol with 90°C (30 s) denaturing temperature, 59°C (45 s) primer annealing temperature, and 72°C (30 s) enzyme reaction temperature for 35 cycles.

[3] = PMA/ionomycin-induced Jurkat T-cell activation, result in words
[4] = phenylbutyrate 1 mM 24 hrs, then ionomycin 1 µM + PMA 10 ng/ml 6 hrs, mitogen stimulation alone 2.68
[5] = 1 mM for 48 hrs, control versus treated cells, flow cytometry

O=C([O-])CCCc1ccccc1.[Na+] [Phenylbutyrate, 4-phenylbutyrate sodium]
expression of SOCS1, a suppressor of cytokine signaling (Jurkat T cells [1]; [3]): upregulates more expression | induction of Th1 and Th2 cytokines and related genes, T-cell activation markers, immune response genes (Jurkat T cells [1]; [3]): completely suppresses or significantly decreases | fold induction of CCL7 (Jurkat T cells [1]; [4]): 1.04 fold | fold induction of CCL11 (Jurkat T cells [1]; [4]): 0.98 fold | fold induction of CCR5 (Jurkat T cells [1]; [4]): 0.98 fold | fold induction of IL6 (Jurkat T cells [1]; [4]): 0.98 fold | fold induction of IL6R (Jurkat T cells [1]; [4]): 0.98 fold | fold induction of IL9 (Jurkat T cells [1]; [4]): 0.98 fold | fold induction of IL12B (Jurkat T cells [1]; [4]): 0.98 fold | fold induction of IL12RB2 (Jurkat T cells [1]; [4]): 0.98 fold | fold induction of IL13 (Jurkat T cells [1]; [4]): 0.98 fold | fold induction of IL13RA1 (Jurkat T cells [1]; [4]): 0.98 fold | fold induction of IL18 (Jurkat T cells [1]; [4]): 0.98 fold | fold induction of MAF (Jurkat T cells [1]; [4]): 0.98 fold | fold induction of SFTPD (Jurkat T cells [1]; [4]): 0.98 fold | fold induction of TLR4 (Jurkat T cells [1]; [4]): 0.98 fold | fold induction of LAT (Jurkat T cells [1]; phenylbutyrate 1 mM 24 hrs, then ionomycin 1 µM + PMA 10 ng/ml 6 hrs, mitogen stimulation alone 3.12): 1.57 fold | fold induction of CCR2 (Jurkat T cells [1]; phenylbutyrate 1 mM 24 hrs, then ionomycin 1 µM + PMA 10 ng/ml 6 hrs, mitogen stimulation alone 4.20): 0.84 fold | fold induction of JAK2 (Jurkat T cells [1]; phenylbutyrate 1 mM 24 hrs, then ionomycin 1 µM + PMA 10 ng/ml 6 hrs, mitogen stimulation alone 4.72): 2.27 fold | fold induction of SOCS1 (Jurkat T cells [1]; phenylbutyrate 1 mM 24 hrs, then ionomycin 1 µM + PMA 10 ng/ml 6 hrs, mitogen stimulation alone 4.82): 8.59 fold | fold induction of IRF1 (Jurkat T cells [1]; phenylbutyrate 1 mM 24 hrs, then ionomycin 1 µM + PMA 10 ng/ml 6 hrs, mitogen stimulation alone 5.86): 1.7 fold | fold induction of CCR4 (Jurkat T cells [1]; phenylbutyrate 1 mM 24 hrs, then ionomycin 1 µM + PMA 10 ng/ml 6 hrs, mitogen stimulation alone 7.41): 1.93 fold | fold induction of STAT4 (Jurkat T cells [1]; phenylbutyrate 1 mM 24 hrs, then ionomycin 1 µM + PMA 10 ng/ml 6 hrs, mitogen stimulation alone 7.89): 3.32 fold | fold induction of IL1R1 (Jurkat T cells [1]; phenylbutyrate 1 mM 24 hrs, then ionomycin 1 µM + PMA 10 ng/ml 6 hrs, mitogen stimulation alone 11.31): 3.92 fold | fold induction of IL18R1 (Jurkat T cells [1]; phenylbutyrate 1 mM 24 hrs, then ionomycin 1 µM + PMA 10 ng/ml 6 hrs, mitogen stimulation alone 19.97): 0.98 fold | fold induction of IRF4 (Jurkat T cells [1]; phenylbutyrate 1 mM 24 hrs, then ionomycin 1 µM + PMA 10 ng/ml 6 hrs, mitogen stimulation alone 26.17): 16.50 fold | fold induction of TLR6 (Jurkat T cells [1]; phenylbutyrate 1 mM 24 hrs, then ionomycin 1 µM + PMA 10 ng/ml 6 hrs, mitogen stimulation alone 29.04): 10.43 fold | fold induction of IL4R (Jurkat T cells [1]; phenylbutyrate 1 mM 24 hrs, then ionomycin 1 µM + PMA 10 ng/ml 6 hrs, mitogen stimulation alone 42.81): 9.53 fold | fold induction of BCL3 (Jurkat T cells [1]; phenylbutyrate 1 mM 24 hrs, then ionomycin 1 µM + PMA 10 ng/ml 6 hrs, mitogen stimulation alone 58.08): 19.73 fold | fold induction of CD69 (Jurkat T cells [1]; phenylbutyrate 1 mM 24 hrs, then ionomycin 1 µM + PMA 10 ng/ml 6 hrs, mitogen stimulation alone 87.43): 48.57 fold | fold induction of TNFRSF9 (Jurkat T cells [1]; phenylbutyrate 1 mM 24 hrs, then ionomycin 1 µM + PMA 10 ng/ml 6 hrs, mitogen stimulation alone 89.26): 13.01 fold | fold induction of IFN-gamma (Jurkat T cells [1]; phenylbutyrate 1 mM 24 hrs, then ionomycin 1 µM + PMA 10 ng/ml 6 hrs, mitogen stimulation alone 126.24): 99.18 fold | fold induction of IL2RA (Jurkat T cells [1]; phenylbutyrate 1 mM 24 hrs, then ionomycin 1 µM + PMA 10 ng/ml 6 hrs, mitogen stimulation alone 151.17): 64.98 fold | fold induction of CSF2 (Jurkat T cells [1]; phenylbutyrate 1 mM 24 hrs, then ionomycin 1 µM + PMA 10 ng/ml 6 hrs, mitogen stimulation alone 229.13): 88.77 fold | fold induction of IL2 (Jurkat T cells [1]; phenylbutyrate 1 mM 24 hrs, then ionomycin 1 µM + PMA 10 ng/ml 6 hrs, mitogen stimulation alone 831.75): 304.86 fold | apoptosis (Jurkat T cells [2]; [5]): no significant differences | cell proliferation (Jurkat T cells [2]; [5]): no significant differences | cytotoxicity (Jurkat T cells [2]; [5]): no significant differences | entry of the cells into the S phase of the cell cycle (Jurkat T cells [2]; pre-treatment 1 mM for 24 hrs, 48 hrs after stimulation with ionomycin 1 µM plus PMA 10 ng/ml): almost completely prevented | DNA binding of AP-1 to IL-2 promoter (human IL-2 promoter): decreases | DNA binding of NF-AT to IL-2 promoter (human IL-2 promoter): decreases | DNA binding of NFκB to IL-2 promoter (human IL-2 promoter): decreases | chromatin structure, acetyl H3 status (human IL-2 promoter): altering acetyl H3 status
